Measured values as given in US20260076937A1, “COMPOSITION FOR PREVENTING OR TREATING AUTOIMMUNE DISEASES COMPRISING A BCAT1 INHIBITOR” (Seoul National University R&DB Foundation, priority 2024, published 2026).
“Also recorded” adds a separate entry of the source.

Columns and labels:
HIF-1α [1] = assay: RT-qPCR of HIF-1α and HIF-1α target genes in CD4+ memory T cells; type: cell-based, human
Protocol: Total RNA was prepared using TRIzol reagent (Life Technologies, Grand Island, NY), followed by cDNA synthesis (Promega, Madison, WI), followed by real-time quantitative RT-PCR with a CFX system (Bio-Rad, Hercules, CA) using SensiFAST SYBR® Lo-ROX (Bioline, London. UK). Gene expression levels were normalized for […] expression using the comparative CT method (ΔΔCT).

EAE mice = assay: Experimental autoimmune encephalomyelitis (EAE) model; type: in vivo, mouse
human CD4+ naive T cells = assay: Cell viability by 7-AAD staining; type: cell-based; details: Bi2 10 μM, 4 days
Protocol: To analyze T cell proliferative capacity, purified isolated human CD4+ T cells were labeled with 1 μM carboxyfluorescein succinimidyl ester (CFSE; Invitrogen, Waltham, MA, USA) and then stimulated with anti-CD3/CD28 antibody coated microbeads for 4 days at 37° C. Cells were stained with 7AAD (BD Biosciences) for 10 minutes to distinguish dead cells and the extent of CFSE dilution in 7AAD-cells was measured by BD LSRFortessa to analyze proliferative capacity. Antibodies listed in Table 2 and previously known BD LSRFortessa cell analyzers were used.

mouse CD4+ naive T cells = assay: Th17/Th1 polarization of mouse CD4+ naive T cells from iLN; type: cell-based; details: Bi2 10 μM
Protocol: (§1) Blocking BCAT1 with Bi2 attenuates Th17 differentiation in mice. In FIG. 13A mRNA expression of slc7a5 and bcat1 in mouse inguinal LN (iLN) cells was analyzed by RT-qPCR at 24 hours after TCR stimulation with anti-CD3/CD28 antibody (n=5). In FIG. 13B protein expression of BCAT1 in mouse inguinal LN cells was analyzed at 24 hours after stimulation of TCR with anti-CD3/CD28 antibody (n=5). In FIGS. 13C to 13D, mouse CD4^+ naive T cells derived from iLN were differentiated under […] or Th1 polarization conditions for 5 days in the presence of Bi2 (10 μM). The amounts of IFN-γ (c) and IL-17A (d) in the culture supernatants of Th1 and Th17 cells (n=5) are shown. In FIG. 13E, the cells of mouse iLN were stimulated with anti CD3/CD28 antibody in the presence of Bi2 (10 μM) for 24 hours. Cell lysates were immunoblotted for HIF-1α (n=3 independent experiments). Cells treated with COCl2 served as a positive control for HIF-1α. […] FIG. 13F is a representative histogram plot of intracellular HIF-1α in cells of mouse iLN. Cells were stimulated with anti CD3/CD28 antibody in the presence of Bi2 (10 μM) for 24 hours. […] The significance was indicated as *=p<0.05, **=p<0.01, ***=p<0.001, according to Mann-Whitney U test (a, c, d, f) or the two-tailed non-pair t test (b, e)).

[2] = test system: TCR-stimulated human CD4+ naive T cells; assay: Cytokine ELISA of culture supernatants, CD4+ naive T cells; type: cell-based; details: TCR stimulation 3 days
HIF-1α [3] = assay: HIF-1α immunoblot in TCR-stimulated CD4+ memory T cells; type: cell-based, human; details: TCR-stimulated CD4+ memory T cells; Bi2 10 μM, CoCl2 100 μM, VH298 100 μM, MG132 5 μM
Protocol: Cells were cultured in radioimmunoprecipitation assay (RIPA) buffer (150 mM NaCl, 10 mM Na2HPO4, pH 7.2, 1% Nonidet P-40, 0.5% deoxycholate) containing phenylmethylsulfonyl fluoride (PMSF; Millipore Sigma, Burlington, MA), EDTA, protease and phosphatase inhibitor cocktail (Thermo Fisher Scientific) to extract total protein. Proteins were separated on 8-10% SDS-polyacrylamide gels and blotted onto polyvinylidene difluoride (PVDF) membranes (Bio-Rad, Hercules, CA) followed by 5% BSA in Tris buffered saline (TBS) with 0.1% Tween 20 and blocked for 1 hour. Membranes were cultured overnight with anti-human SLC7A5, anti-BCAT, anti-phospho-p70S6K, anti-p70S6K, anti-HIF-1α (all provided by Cell Signaling Technology, Danvers, MA) primary antibodies at 4° C., followed by culture with HRP-conjugated secondary antibodies for 1 hour at room temperature. Membranes were developed using SuperSignal West Femto Maximum Sensitivity Substrate or SuperSignal West Pico PLUS Chemiluminescent Substrate system (Thermo Fisher Scientific).

[4] = test system: human CD4+ memory T cells; assay: Cholesterol analysis in cell lysates; type: cell-based; details: TCR stimulation 3 days; Bi2 10 μM, statin 10 μM
Protocol: Total cholesterol amount in cultured cells was determined using a fluorometric Amplex™ Red Cholesterol Assay Kit (Thermo Fisher Scientific) according to the manufacturer's instructions.

HIF-1α [5] = assay: HIF-1α expression in TCR-stimulated mouse iLN cells; type: cell-based; details: Bi2 10 μM, 24 hours
Protocol: as §1

[6] = test system: human CD4+ memory T cells; assay: scRNA-seq analysis of CD4+ memory T cells; type: cell-based; details: Bi2 10 μM
Protocol: Freshly purified CD4^+ memory T-cells were stimulated for 72 hours with anti-CD3/CD28 coated microbeads in the absence or presence of Bi2. Samples from four different donors were multiplexed for 30 minutes at 4° C. with a hashtag oligo. Totalseq™ anti-human hashtag antibody (Biolegend, USA) was then used to perform in three experimental conditions (TCR-stimulated cells with Bi2, TCR-stimulated cells without Bi2, and cells without TCR stimulation). Tagged cells were pooled and loaded into a Chromium system (10× Genomics, Pleasanton, CA) and encapsulated into a single droplet targeting about 40,000 cells for each GEM (Gel Beads-in-emulsion). Chromium Single Cell 5′ Kit (10× Genomics) was used to generate scRNA-seq and TCR libraries according to the manufacturer's instructions. Demultiplexing and read alignment to the bound human genome was performed using Cell Ranger (v6.1.2).

[7] = Bi2 10 mg/kg or LβhL 1 g/kg i.p.
[8] = Bi2 10 mg/kg or LβhL 1 g/kg i.p., 10 mg/kg

## O=C(NNS(=O)(=O)c1ccccc1C(F)(F)F)c1cc2cc(Cl)ccc2o1 [Bi2, BCATc inhibitor 2]
HIF-1α [1]; 4 hours after TCR stimulation
  HIF-1α mRNA expression: reduced
HIF-1α [1]; 72 hours of TCR stimulation
  expression of SCL2A1, LDHA and PGK1 mRNA (HIF-1α target genes): reduced
EAE mice; Bi2 10 mg/kg i.p.
  HIF-1α expression in SCMC (immunoblot): decreased
  absolute number of Th17 cells co-producing IFN-γ/IL-17A: significantly reduced
  absolute number of spinal cord mononuclear cells (SCMC): significantly lower
  proportion of CD4+ T-cells in SCMC: significantly lower
  relative proportion of Th17 cells co-producing IFN-γ/IL-17A: did not change
EAE mice; [7]
  cell infiltration in spinal cord: decrease
  nerve damage, spinal cord histology: decrease
EAE mice; [8]
  CD4+ T-cells producing IL-17A in spinal cord infiltrates and draining LN: preferentially reduced
  HIF-1α expression in CD4+ T-cells of spinal cord (intracellular staining): preferentially in CD4+ T-cells in SCMC but not in CD11b+F4/80+ macrophages; also recorded: reduced
EAE mice; i.p. three times a week for 14 days, Bi2 10 mg/kg, LβhL 1 g/kg, 10 mg/kg
  EAE clinical score / severity: significantly lower; also recorded: alleviating the severity of disease
Human CD4+ naive T cells
  viability of activated CD4+ naive T cells: no significant effect
Mouse CD4+ naive T cells; Th1 polarization 5 days
  IFN-γ production: failed to inhibit
Mouse CD4+ naive T cells; Th17 polarization 5 days
  differentiation of Th17 cells (IL-17A): preferentially inhibited; also recorded: attenuates
[2]
  IL-2 production by CD4+ naive T cells: not affected
HIF-1α [3]
  HIF-1α protein expression: significantly inhibited
[4]
  intracellular cholesterol: slight increase; also recorded: significantly increased
HIF-1α [5]
  TCR-induced HIF-1α expression in mouse LN T cells: reduced
[6]; 72 hours TCR stimulation
  HIF1A expression in activated Th17 cells: down-regulated
  activated Th17 cell population (clusters 8, 13, 15): decreased
[6]; pathway enrichment of DEGs
  T-cell activation, cytokine signaling and cytokine production pathways in activated Th17 subset: decrease
